Data as given in the supplement of paper PMC10307832.

Legend:
Experiment in all cases: relative viability (nuclei count vs DMSO), 5 days (fraction); higher = more cells survive
[1] = compound: C=CCc1cccc(/C=N/NC(=O)CN2CCN(Cc3ccccc3)CC2)c1O [PAC-1] + O=C(CCCCCCC(=O)Nc1ccccc1)NO [Vorinostat] (partner 1 µM)
Outline: (§1)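 Lung cancer cell lines in 1536-well plates were dosed by pin tool the day after seeding, either with one drug alone or with a fixed anchor-drug dose plus five library-drug doses (not always all listed) in √10 steps. After 5 days, cells were fixed and their nuclei stained in one step (final 0.05% Triton X-100, 1% formaldehyde, 1 ug/ml Hoechst), then counted on 4× images. Relative viability is the nuclei count in treated wells divided by that in vehicle wells. Values are medians of duplicate plates.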

[2] = compound: C=CC(=O)Nc1cc(-n2c(=O)ccc3cnc4ccc(-c5ccc(NS(C)(=O)=O)cc5)cc4c32)ccc1C [BMX-IN-1] + CC(=O)c1c(C)c2cnc(Nc3ccc(N4CCNCC4)cn3)nc2n(C2CCCC2)c1=O [Palbociclib] (partner 0.5 µM)
Outline: as §1

[3] = compound: C=CC(=O)Nc1cc(-n2c(=O)ccc3cnc4ccc(-c5ccc(NS(C)(=O)=O)cc5)cc4c32)ccc1C [BMX-IN-1] + O=C(CCCCCCC(=O)Nc1ccccc1)NO [Vorinostat] (partner 1 µM)
Outline: as §1

[4] = compound: C=CC(=O)Nc1cc(-n2c(=O)ccc3cnc4ccc(-c5ccc(NS(C)(=O)=O)cc5)cc4c32)ccc1C [BMX-IN-1] + CC1(C)CCC(c2ccc(Cl)cc2)=C(CN2CCN(c3ccc(C(=O)NS(=O)(=O)c4ccc(N[C@H](CCN5CCOCC5)CSc5ccccc5)c(S(=O)(=O)C(F)(F)F)c4)cc3)CC2)C1 [Navitoclax] (partner 0.5 µM)
Outline: as §1

[5] = compound: C=CCc1cccc(/C=N/NC(=O)CN2CCN(Cc3ccccc3)CC2)c1O [PAC-1] + NC(=O)Nc1cc(-c2cccc(F)c2)sc1C(=O)N[C@H]1CCCNC1 [AZD7762] (partner 0.2 µM)
Outline: as §1

Cell Line | relative viability ([1]; first compound 0.02 µM) | relative viability ([1]; first compound 0.06325 µM) | relative viability ([1]; first compound 0.2 µM) | relative viability ([1]; first compound 2 µM) | relative viability ([2]; first compound 0.02 µM) | relative viability ([2]; first compound 0.2 µM) | relative viability ([2]; first compound 0.6325 µM) | relative viability ([2]; first compound 2 µM) | relative viability ([3]; first compound 0.02 µM) | relative viability ([3]; first compound 0.2 µM) | relative viability ([3]; first compound 0.6325 µM) | relative viability ([3]; first compound 2 µM) | relative viability ([4]; first compound 0.02 µM) | relative viability ([4]; first compound 0.2 µM) | relative viability ([4]; first compound 0.6325 µM) | relative viability ([4]; first compound 2 µM) | relative viability ([5]; first compound 0.02 µM) | relative viability ([5]; first compound 0.06325 µM) | relative viability ([5]; first compound 0.2 µM) | relative viability ([5]; first compound 2 µM)
HCC-44 | 1.11 | 1.05 | 1.03 | 1.09 | 1.02 | 0.96 | 0.996 | 0.979 | 1.16 | 1.14 | 1.19 | 1.12 | 1.25 | 1.16 | 1.13 | 0.989 | 1.09 | 0.998 | 1.03 | 0.992
NCI-H647 | 0.28 | 0.67 | 0.706 | 0.514 | 0.436 | 0.384 | 0.377 | 0.416 | 0.709 | 0.725 | 0.663 | 0.495 | 1.52 | 1.23 | 1.03 | 1.16 | 0.44 | 0.589 | 0.502 | 0.467
Calu-6 |  |  |  |  |  |  |  |  |  |  |  |  | 1.08 | 1.06 | 0.902 | 0.823 |  |  |  | 
201T | 0.957 | 0.949 | 1.09 | 1.05 | 0.392 | 0.391 | 0.42 | 0.348 | 1.2 | 1 | 1.05 | 1.05 | 1.14 | 1.21 | 1.18 | 1.2 | 0.625 | 0.59 | 0.571 | 0.567
CAL-12T | 0.89 | 0.793 | 0.688 | 0.712 | 0.466 | 0.415 | 0.523 | 0.503 | 1.11 | 0.951 | 0.756 | 0.812 | 1.28 | 1.21 | 1.22 | 1.24 | 0.579 | 0.621 | 0.626 | 0.6
HCC-78 | 0.379 | 0.416 | 0.435 | 0.431 | 0.447 | 0.464 | 0.492 | 0.549 | 0.383 | 0.438 | 0.431 | 0.41 | 0.859 | 0.851 | 1 | 0.863 | 0.676 | 0.558 | 0.596 | 0.573
LK-2 | 0.317 | 0.306 | 0.301 | 0.58 | 1.1 | 0.75 | 0.704 | 0.895 | 0.289 | 0.151 | 0.282 | 0.365 | 1.09 | 1.04 | 1.02 | 0.923 | 0.488 | 0.315 | 0.327 | 0.416
NCI-H522 | 0.902 | 0.846 | 0.941 | 0.862 | 0.841 | 1.14 | 1.02 | 0.86 | 0.979 | 0.786 | 0.832 | 0.968 |  |  |  |  | 0.886 | 0.69 | 0.799 | 0.891
NCI-H322M | 0.749 | 0.907 | 1.04 | 0.828 | 0.531 | 0.484 | 0.478 | 0.445 | 0.872 | 0.983 | 1.01 | 0.876 | 0.848 | 1.18 | 1.24 | 1.16 | 0.573 | 0.618 | 0.706 | 0.584
